Experiments:
[1] = tested on: SKOV3 cells; test: In vitro phagocytosis assay of SKOV3 cells by PBMC-derived M2 macrophages; assay type: cell-based, human; details: bestatin 20 μM, tosedostat 20 μM, vs DMSO
[2] = tested on: normal B cells; test: In vitro phagocytosis assay of normal B cells by PBMC-derived M2 macrophages; assay type: cell-based, human; details: for phagocytosis of B cells: bestatin 20 μM, tosedostat 10 μM vs DMSO, anti-CD24 antibody (clone SN3) vs IgG (FIG. 9B); for selectivity, CD24+ ovarian cancer cells relative to normal CD24+ B cells: comparison of FIG. 9B and 9C
Source text: Macrophage Generation and Stimulation: Primary human donor-derived macrophages were generated as described previously (Martinez, Curr Protocol Immunol 2012, Chapter 14:14.28.1-14.28.23). In brief, Leukopaks from anonymous donors were obtained from the Rhode Island Blood (Providence, RI) and peripheral blood […] (PBMCs) were isolated by density gradients centrifugation using Ficoll Paque Plus (Sigma-Aldrich, Cat #17-1440-02) followed by RBC lysis using RBC lysis buffer (eBioscience, Cat #00-4333-57). For monocyte isolation, PBMCs were incubated in Monocyte Attachment Medium (Sigma-Aldrich, Cat #C-28051) for 1 hour at 37° C. and 5% CO2 and then washed three times in Iscove's Modified Dulbecco's Medium (IMDM) (Gibco, Cat #12440053) to remove non-adherent cells. The remaining monocytes were detached and seeded in 96-well plates and cultured at 37° C. and 5% CO2 in IMDM supplemented with 10% FBS (Atlanta Biologicals, Cat #S11550) and 20 ng/ml recombinant human M-CSF (Peprotech, Cat #AF-300-25). After 4 days monocytes were then treated with 20 ng/ml recombinant human IL-4 (Peprotech, Cat #200-04) and 10 ng/mL recombinant human IL-10 (PeproTech, Cat #200-10) for another 3-4 days to obtain M2 polarized macrophages. Macrophage differentiation was confirmed morphologically using microscopy. M2-macrophage polarization was confirmed by immunophenotyping of the M2 marker CD206 using PE-conjugated anti-human anti-CD206 antibody (BioLegend, Cat #321106, clone 15-2, 1:100 dilution). Primary B-cell Isolation and Culture: Pan B cells were isolated by negative selection from PBMCs isolated from Leukopaks (as described above) using a MojoSort Human Pan B Cell Isolation Kit (BioLegend, Cat #480081) according to the manufacturer's instructions. The purity of B cells was confirmed to be >95% by flow cytometry using a FITC anti-human CD19 antibody (BioLegend, Cat #302205, clone HIB19). B cells were cultured in RPMI 1640 medium supplemented with 5% human serum (Sigma-Aldrich, Cat #H6914), MEM non-essential amino acids solution (Gibco, Cat #1140050), and recombinant human IL-2 (50 ng/ml) (PeproTech, Cat #200-02) and IL-4 (10 ng/ml) (PeproTech, Cat #200-04). In vitro Phagocytosis Assays: To facilitate the quantification of phagocytic events, we adapted a microscopy-based fluorescence phagocytosis […] al., J Immunol Methods 2009, 342(1-2):71-7; Lindner et al., Biotechniques 2020, 68(5):245-250) for use with a Celigo imaging cytometer. […] Phagocytic events were quantified by counting the number of red fluorescent (pHrodo+) cells per well using a Celigo Imaging Cytometer (Nexcelom). […]

| Structure (SMILES) | macrophage-mediated phagocytosis [1] | phagocytosis of B cells [2] | selectivity, CD24+ ovarian cancer cells relative to normal CD24+ B cells [2] |
| --- | --- | --- | --- |
| CC(C)C[C@H](NC(=O)[C@@H](O)[C@H](N)Cc1ccccc1)C(=O)O [bestatin] | substantially increased | did not undergo phagocytosis | selectivity toward CD24+ ovarian cancer cells relative to normal CD24+ B cells |
| CC(C)C[C@@H](C(=O)N[C@H](C(=O)OC1CCCC1)c1ccccc1)[C@H](O)C(=O)NO [tosedostat] | increased | did not undergo phagocytosis | selectivity toward CD24+ ovarian cancer cells relative to normal CD24+ B cells |
